Patent publication US7919517B2, “Indazole derivatives” (Kyowa Hakko Kirin Co., Ltd., priority 2003, dated 2011)
Where a name gives a salt, the structure may show the parent alone.

Key:
Type in all cases: cell-based
[1] = tested on: human acute myeloid leukemia cell line MV-4-11; assay: Cytostatic activity on leukemia cell line MV-4-11 (WST-1); details: Homo sapiens, MV4-11; 10 μmol/L, 72 hours, MV-4-11 cells; read-out: cytostatic rate MV-4-11 (%) (10 μmol/L)
Protocol: (§1) The cytostatic rates of a test compound on human acute myeloid leukemia cell lines MV-4-11 and ML-1, and human chronic myeloid leukemia cell line K562 were determined in the following manner.
(§2) Each cell was cultured using Roswell Park Memorial Institute's Medium (RPMI) 1640 (Gibco, Catalog No. 11875-093) containing 10% fetal bovine serum (Gibco, Catalog No. 10437-028) and 1% penicillin/streptomycin (1:1) (Gibco, Catalog No. 15140-122). Each 80 μL of the MV-4-11 cell having a concentration of 7.5×10^4 cells/mL (or the ML-1 cell or K562 cell having a concentration of 2.5×10^4 cells/mL) was inoculated to wells of a TC MICROWELL 96U plate (Nalge Nunc International, Catalog No. 163320) and was cultured in a 5% carbon dioxide gas incubator at 37° C. for 4 hours. As a blank, only RPMI medium (80 μL) was added to a well. Each 20 μL of a solution of the test compound in dimethyl sulfoxide (DMSO) which was prepared to make the final concentration to 10 μmol/L, was added to the MV-4-11 cell, ML-1 cell and K562 cell, respectively. Each 20 μL of DMSO was added to the control well and the blank well to […]. After adding the test compound, the cells were incubated in a 5% carbon dioxide gas incubator at 37° C. for 72 hours. After adding 20 μL of WST-1 reagent {4-[3-(4-iodophenyl)-2-(4-nitrophenyl)-2H-5-tetrazolio]-1,3-benzene disulfonate sodium salt} (Roche Diagnostics K.K., Catalog No. 1644807) diluted to 50% with RPMI medium, the cells were further incubated at 37° C. for 2 hours. Then, the absorbances at 450 nm (reference wavelength: 690 nm) were determined with a microplate spectrophotometer SPECTRA max 340PC (Molecular Devices Corporation). The relative growth (%) of a well to which the test compound had been added was determined while setting the absorbance of a well to which not the test compound but DMSO alone had been added (control) at 100% and that of a well containing RPMI medium alone at 0%. The cytostatic rate (%) of the test compound was determined by subtracting the calculated relative growth from 100.

[2] = tested on: human acute myeloid leukemia cell line ML-1; assay: Cytostatic activity on leukemia cell line ML-1 (WST-1); details: Homo sapiens, ML1; 10 μmol/L, 72 hours, ML-1 cells; read-out: cytostatic rate ML-1 (%) (10 μmol/L)
Protocol: as §1, §2

[3] = tested on: human chronic myeloid leukemia cell line K562; assay: Cytostatic activity on leukemia cell line K562 (WST-1); details: Homo sapiens; 10 μmol/L, 72 hours, K562 cells; read-out: cytostatic rate K562 (%) (10 μmol/L)
Protocol: as §1, §2

[4] = tested on: human colon cancer cell line Colo205; assay: Cytostatic activity on solid carcinoma cell line Colo205 (WST-1); details: Homo sapiens, COLO 205; 10 μmol/L, 72 hours, Colo205 cells; read-out: cytostatic rate Colo205 (%) (10 μmol/L)
Protocol: as §2
The cytostatic rate of a test compound on the human colon cancer cell line Colo205 was determined in the following manner.
The cell was cultured using Roswell Park Memorial Institute's Medium (RPMI) 1640 (Gibco, Catalog No. 11875-093) containing 10% fetal bovine serum (Gibco, Catalog No. 10437-028) and 1% penicillin/streptomycin (1:1) (Gibco, Catalog No. 15140-122). Each 80 μL of the Colo205 having a concentration of 1.25×10^4 cells/mL was inoculated to wells of a TC MICROWELL 96F plate (Nalge Nunc International, Catalog No. 167008) and was cultured in a 5% carbon dioxide gas incubator at 37° C. for 24 hours. As a blank, only RPMI (80 μL) was added to a well. Each 20 μL of a solution of the test compound in DMSO which was prepared to make the final concentration to 10 μmol/L, was added to the Colo205 cell. Each 20 μL of DMSO was added to the control well and the blank well to […]. After adding the test compound, the cell was incubated in a 5% carbon dioxide gas incubator at 37° C. for 72 hours. The cytostatic rate (%) was then determined in the same way as the leukemia cell lines.

Compound `O=C(c1ccc(/C=C/c2n[nH]c3ccccc23)cc1)N1CCN(CCO)CC1` [Compound 105, (E)-1-{4-[2-(1H-indazol-3-yl)vinyl]benzoyl}-4-(2-hydroxyethyl)piperazine] has an inhibition at 10 µM [1] of 96%, an inhibition at 10 µM [2] of 85% and an inhibition at 10 µM [3] of 90%. It also gave an inhibition at 10 µM [4] of 88%.

`O=C(c1ccc(/C=C/c2n[nH]c3ccccc23)cc1)N1CCC(N2CCOCC2)CC1` [Compound 106, (E)-1-{4-[2-(1H-indazol-3-yl)vinyl]benzoyl}-4-morpholinopiperidine] showed an inhibition at 10 µM [1] of 98%, an inhibition at 10 µM [2] of 58% and an inhibition at 10 µM [3] of 35%. The inhibition at 10 µM [4] was 37%.

Work on `CC(C)N1CCN(C(=O)c2ccc(/C=C/c3n[nH]c4ccccc34)cc2)CC1` [Compound 107, (E)-1-{4-[2-(1H-indazol-3-yl)vinyl]benzoyl}-4-isopropylpiperazine hydrochloride] yielded an inhibition at 10 µM [1] of 98%, an inhibition at 10 µM [2] of 77% and an inhibition at 10 µM [3] of 91%. The inhibition at 10 µM [4] was 84%.

`CNCCNC(=O)c1ccc(/C=C/c2n[nH]c3ccccc23)cc1` [Compound 112, (E)-N-[2-(methylamino)ethyl]-4-[2-(1H-indazol-3-yl)vinyl]benzamide hydrochloride] showed an inhibition at 10 µM [1] of 98%, an inhibition at 10 µM [2] of 83% and an inhibition at 10 µM [3] of 81%. The inhibition at 10 µM [4] was 88%.

For `CCC(C)N1CCN(C(=O)c2ccc(/C=C/c3n[nH]c4ccccc34)cc2)CC1=O` (centres unmarked) [Compound 116, (E)-4-{4-[2-(1H-indazol-3-yl)vinyl]benzoyl}-1-(sec-butyl)piperazin-2-one hydrochloride], the inhibition at 10 µM [1] was 98%, the inhibition at 10 µM [2] was 79% and the inhibition at 10 µM [3] was 88%. The inhibition at 10 µM [4] was 91%.

Compound `NC1CCN(C(=O)c2ccc(/C=C/c3n[nH]c4ccccc34)cc2)C1` (centres unmarked) [Compound 122, (E)-1-{4-[2-(1H-indazol-3-yl)vinyl]benzoyl}-3-aminopyrrolidine dihydrochloride] has an inhibition at 10 µM [1] of 98%, an inhibition at 10 µM [2] of 79% and an inhibition at 10 µM [3] of 93%. The inhibition at 10 µM [4] was 89%.

In the case of `O=C(c1ccc(/C=C/c2n[nH]c3ccccc23)cc1)N1CCN(C(=O)[C@H]2CCNC2)CC1` [Compound 124, (S)-(E)-1-{4-[2-(1H-indazol-3-yl)vinyl]benzoyl}-4-(pyrrolidin-3-ylcarbonyl)piperazine dihydrochloride], the inhibition at 10 µM [1] is reported as 98%, the inhibition at 10 µM [2] is reported as 83% and the inhibition at 10 µM [3] is reported as 94%. It also gave an inhibition at 10 µM [4] of 87%.

In the case of `CN(C)CC(=O)N1CCN(C(=O)c2ccc(/C=C/c3n[nH]c4ccccc34)cc2)CC1` [Compound 125, (E)-4-dimethylaminoacetyl-1-{4-[2-(1H-indazol-3-yl)vinyl]benzoyl}piperazine], the inhibition at 10 µM [1] is reported as 98%, the inhibition at 10 µM [2] is reported as 79% and the inhibition at 10 µM [3] is reported as 91%. The inhibition at 10 µM [4] was 86%.

`CCOCC(=O)N1CCN(C(=O)c2ccc(/C=C/c3n[nH]c4ccccc34)cc2)CC1` [Compound 128, (E)-4-ethoxyacetyl-1-{4-[2-(1H-indazol-3-yl)vinyl]benzoyl}piperazine] showed an inhibition at 10 µM [1] of 98%, an inhibition at 10 µM [2] of 79% and an inhibition at 10 µM [3] of 87%. It also gave an inhibition at 10 µM [4] of 88%.

Compound `CC(C)(N)C(=O)N1CCN(C(=O)c2ccc(/C=C/c3n[nH]c4ccccc34)cc2)CC1` [Compound 131, (E)-4-(2-amino-2-methylpropionyl)-1-{4-[2-(1H-indazol-3-yl)vinyl]benzoyl}piperazine dihydrochloride] has an inhibition at 10 µM [1] of 99%, an inhibition at 10 µM [2] of 85% and an inhibition at 10 µM [3] of 98%. For the same compound, the inhibition at 10 µM [4] was 91%.

With `CN(C)C(=O)NC1CCN(C(=O)c2ccc(/C=C/c3n[nH]c4ccccc34)cc2)CC1` [Compound 132, (E)-4-dimethylcarbamoylamino-1-{4-[2-(1H-indazol-3-yl)vinyl]benzoyl}piperidine] the inhibition at 10 µM [1] was 100%, the inhibition at 10 µM [2] was 88% and the inhibition at 10 µM [3] was 95%. The inhibition at 10 µM [4] was 91%.

`COCCN1CCN(C(=O)c2ccc(/C=C/c3n[nH]c4ccccc34)cc2)CC1=O` [Compound 134, (E)-4-{4-[2-(1H-indazol-3-yl)vinyl]benzoyl}-1-(2-methoxyethyl)piperazin-2-one hydrochloride] gave an inhibition at 10 µM [1] of 100%, an inhibition at 10 µM [2] of 88% and an inhibition at 10 µM [3] of 91%. The inhibition at 10 µM [4] was 91%.

`CC(C)NC(=O)CN1CCN(C(=O)c2ccc(/C=C/c3n[nH]c4ccccc34)cc2)CC1` [Compound 135, (E)-1-{4-[2-(1H-indazol-3-yl)vinyl]benzoyl}-4-[2-oxo-2-(isopropylamino)ethyl]piperazine dihydrochloride] was tested, and the inhibition at 10 µM [1] was 99%, the inhibition at 10 µM [2] was 79% and the inhibition at 10 µM [3] was 93%. The inhibition at 10 µM [4] was 87%.

`CC(CO)(CO)C(=O)N1CCN(C(=O)c2ccc(/C=C/c3n[nH]c4ccccc34)cc2)CC1` [Compound 136, (E)-4-(3-hydroxy-2-hydroxymethyl-2-methylpropionyl)-1-{4-[2-(1H-indazol-3-yl)vinyl]benzoyl}piperazine hydrochloride] gave an inhibition at 10 µM [1] of 99%, an inhibition at 10 µM [2] of 82% and an inhibition at 10 µM [3] of 94%. For the same compound, the inhibition at 10 µM [4] was 91%.

Compound `CC(=O)N(C)CC(=O)N1CCN(C(=O)c2ccc(/C=C/c3n[nH]c4ccccc34)cc2)CC1` [Compound 138, (E)-4-(N-acetyl-N-methylaminoacetyl)-1-{4-[2-(1H-indazol-3-yl)vinyl]benzoyl}piperazine] has an inhibition at 10 µM [1] of 99%, an inhibition at 10 µM [2] of 88% and an inhibition at 10 µM [3] of 94%. The inhibition at 10 µM [4] was 91%.

`O=C(c1ccc(/C=C/c2n[nH]c3ccccc23)cc1)N1CCN(C(=O)[C@@H]2CCCN2)CC1` [Compound 140, (S)-(E)-4-[(pyrrolidin-2-yl)carbonyl]-1-{4-[2-(1H-indazol-3-yl)vinyl]benzoyl}piperazine] gave an inhibition at 10 µM [1] of 99%, an inhibition at 10 µM [2] of 82% and an inhibition at 10 µM [3] of 95%. For the same compound, the inhibition at 10 µM [4] was 85%.

`CN1CCC(C(=O)N2CCN(C(=O)c3ccc(/C=C/c4n[nH]c5ccccc45)cc3)CC2)CC1` [Compound 143, (E)-4-[(1-methylpiperidin-4-yl)carbonyl]-1-{4-[2-(1H-indazol-3-yl)vinyl]benzoyl}piperazine] was tested, and the inhibition at 10 µM [1] was 100%, the inhibition at 10 µM [2] was 84% and the inhibition at 10 µM [3] was 95%. The inhibition at 10 µM [4] was 92%.

In the case of `CN1CCCC1C(=O)N1CCN(C(=O)c2ccc(/C=C/c3n[nH]c4ccccc34)cc2)CC1` (centres unmarked) [Compound 145, (E)-4-[(1-methylpyrrolidin-2-yl)carbonyl]-1-{4-[2-(1H-indazol-3-yl)vinyl]benzoyl}piperazine], the inhibition at 10 µM [1] is reported as 99%, the inhibition at 10 µM [2] is reported as 85% and the inhibition at 10 µM [3] is reported as 94%. The inhibition at 10 µM [4] was 92%.

In the case of `O=C(c1ccc(/C=C/c2n[nH]c3ccccc23)cc1)N1CCN(O)CC1` [Compound 147, (E)-4-Hydroxy-1-{4-[2-(1H-indazol-3-yl)vinyl]benzoyl}piperazine], the inhibition at 10 µM [1] is reported as 99%, the inhibition at 10 µM [2] is reported as 89% and the inhibition at 10 µM [3] is reported as 77%. It also gave an inhibition at 10 µM [4] of 83%.

`CC(C)(C)OC(=O)NN1CCN(C(=O)c2ccc(/C=C/c3n[nH]c4ccccc34)cc2)CC1` [Compound 148, (E)-1-{4-[2-(1H-indazol-3-yl)vinyl]benzoyl}-4-(tert-butyloxycarbonylamino)piperazine] showed an inhibition at 10 µM [1] of 98%, an inhibition at 10 µM [2] of 81% and an inhibition at 10 µM [3] of 91%. It also gave an inhibition at 10 µM [4] of 83%.
